Data reported in paper PMC2364952, “The Anti-Inflammatory Activity of Boron Derivatives in Rodents” (Metal-Based Drugs, 1995).

Columns and labels:
[1] = test system: carrageenan-induced inflammation of hind foot; experiment: Carrageenan-induced foot edema, mice; type: in vivo, CF1 male mice; conditions: for reduction of induced edema: mice, 8 mg/kg x 2, I.P., carrageenan; for inhibition of induced inflammation: standards at their therapeutic dose (indomethacin 8 mg/kg x 2, pentoxifylline and phenylbutazone 50 mg/kg x 2)
acid phosphatase = experiment: Acid phosphatase activity, mouse macrophages; type: cell-based, mouse (J774 macrophages); conditions: Table 3; read-out: IC50 Acid Phosphatase, Mouse Macrophage
aryl sulphatase = experiment: Aryl sulfatase activity, mouse macrophages; type: cell-based, mouse (J774 macrophages); conditions: Table 3; read-out: IC50 Aryl Sulfatase, Mouse Macrophage
elastase = experiment: Elastase activity, mouse macrophages; type: cell-based, mouse (J774 macrophages); conditions: Table 5; read-out: IC50 Elastase, Mouse Macrophage
[2] = test system: tail flick response to heat; experiment: Hot plate tail flick screen; type: in vivo, CF1 male mice; conditions: for Mice Tail Flick: 8 mg/kg I.P., hot plate, Table 2; for tail flick assay time / blocking central pain compared with morphine: mice; for tail flick assay time: 8 mg/kg; for blocking central pain compared with morphine: tail flick
trypsin = experiment: Trypsin proteolytic activity, mouse macrophages; type: cell-based, mouse (J774 macrophages); conditions: Table 5; read-out: IC50 Trypsin, Mouse Macrophage
cathepsin = experiment: Cathepsin activity, mouse macrophages; type: cell-based, mouse (J774 macrophages); conditions: Table 3; read-out: IC50 Cathepsin, Mouse Macrophage
[3] = molecular target: prostaglandin cyclooxygenase; experiment: Prostaglandin cyclooxygenase activity, macrophages; type: cell-based, mouse (J774 macrophages); conditions: Table 7
[4] = test system: acetic acid induced stretch reflex; experiment: Local analgesic screen (acetic acid writhing); type: in vivo, CF1 mice; conditions: for Mice Writhing Reflex: 8 mg/kg I.P., Table 2; for reduction of the reflex action: mice, acetic acid induced local pain, 8 mg/kg
[5] = test system: carrageenan-induced inflammation of paw; experiment: Carrageenan-induced paw edema, rats; type: in vivo, Sprague Dawley male rats; conditions: 8 mg/kg x 2, I.P., Table 2;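 also: paw weight increase as percent of control rats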
[6] = test system: carrageenan-induced pleural fluid; experiment: Anti-pleurisy screen; type: in vivo, Sprague Dawley male rats;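 as to Rat Pleurisy: Pleural fluid volume as percent of control rats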

SMILES: CC[N+]([BH2-]C#N)(CC)CP(=O)(OC)OC [Compound 62]
- reduction of induced edema [1]: at least 40%

SMILES: CC[N+]([BH2-]C#N)(CC)CP(=O)(OC(C)C)OC(C)C [Compound 64]
- reduction of induced edema [1]: at least 40%

SMILES: CCOP(=O)(C[N+](C)(C)[BH2-]C#N)OCC [Compound 66]
- reduction of induced edema [1]: at least 40%

SMILES: CC(C)OP(=O)(C[NH+](C)[BH2-]C#N)OC(C)C (centres unmarked) [Compound 67]
- reduction of induced edema [1]: at least 40%

SMILES: CCOC(=O)[BH2-][N+](C)(C)CP(=O)(OCC)OCC [Compound 68]
- reduction of induced edema [1]: at least 40%

SMILES: CCNC(=O)[BH2-][NH+](C)CP(=O)(OCC)OCC (centres unmarked) [Compound 69]
- reduction of induced edema [1]: at least 40%

SMILES: CC(C)OP(=O)(C[NH+](C)[BH2-]C(=O)O)OC(C)C (centres unmarked) [Compound 71]
- reduction of induced edema [1]: at least 40%

SMILES: CCNC(=O)[BH2-][NH+](C)CP(=O)(OC(C)C)OC(C)C (centres unmarked) [Compound 73]
- reduction of induced edema [1]: at least 40%

SMILES: C[NH2+][BH2-]C(=O)NO.[H+].c1ccc([B-](c2ccccc2)(c2ccccc2)c2ccccc2)cc1 [Compound 75]
- IC50 (acid phosphatase): 6.61 µM
- IC50 (aryl sulphatase): 1.5 µM
- IC50 (elastase): 7.59 µM
- Mice Tail Flick [2]: 279 % of control
- tail flick assay time [2]: increased
- blocking central pain compared with morphine [2]: as effective as morphine
- IC50 (trypsin): 2.51 µM
- IC50 (cathepsin): 4.58 µM
- IC50 [3]: 6.61 µM
- Mice Writhing Reflex [4]: 34 % of control
- reduction of the reflex action [4]: at least 45%
- reduction of induced edema [1]: at least 40%

SMILES: C[N+](C)(C)[BH2-]C(=O)NO.[H+].c1ccc([B-](c2ccccc2)(c2ccccc2)c2ccccc2)cc1 [Compound 76]
- IC50 (acid phosphatase): 3.96 µM
- IC50 (aryl sulphatase): 1.37 µM
- IC50 (elastase): 4.83 µM
- Mice Tail Flick [2]: 258 % of control
- tail flick assay time [2]: increased
- blocking central pain compared with morphine [2]: as effective as morphine
- Rat Inflammatory [5]: 60 % of control
- pleurisy edema in rats ([6]; 8 mg/kg): reduced significantly
- Rat Pleurisy ([6]; rats, 8 mg/kg I.P., 1 h before and 3 h after carrageenan, Table 2): 50 % of control
- IC50 (trypsin): 2.06 µM
- IC50 (cathepsin): 1.69 µM
- IC50 [3]: 1.61 µM
- Mice Writhing Reflex [4]: 45 % of control
- reduction of the reflex action [4]: at least 45%
- reduction of induced edema [1]: at least 40%

SMILES: C[N+]1([BH2-]C(=O)O)CCOCC1 [Compound 84]
- reduction of induced edema [1]: at least 30%

SMILES: COC(=O)[BH2-][NH+]1CCC(c2ccccc2)CC1 (centres unmarked) [Compound 87]
- IC50 (acid phosphatase): 2.68 µM
- IC50 (elastase): 6.98 µM
- IC50 (trypsin): 2.85 µM
- IC50 (cathepsin): 3.99 µM
- Mice Writhing Reflex [4]: 89 % of control
- reduction of induced edema [1]: at least 30%

SMILES: Cc1[nH]cc[n+]1[BH2-]C#N [Compound 91]
- reduction of induced edema [1]: at least 30%

SMILES: CN1CC[C@]23c4c5ccc(O)c4O[C@H]2[C@@H](O)C=C[C@H]3[C@H]1C5 [Morphine, morphine, reference compound]
- Mice Tail Flick [2]: 213 % of control

SMILES: CCCCC1C(=O)N(c2ccccc2)N(c2ccccc2)C1=O [Phenylbutazone, phenylbutazone, reference compound]
- Rat Inflammatory [5]: 47 % of control
- inhibition of induced inflammation [1]: 47%

SMILES: CC(=O)CCCCn1c(=O)c2c(ncn2C)n(C)c1=O [pentoxifylline, reference compound]
- inhibition of induced inflammation [1]: 30%
